The values below come from patent US11091419B2, “Preparation and purification of biphenyldicarboxylic acids” (ExxonMobil Chemical Patents Inc., priority 2017, dated 2021).

Each structure is given as a SMILES string.

A short description of this data set: solubility versus temperature in water (FIG. 2). Format: physicochemical. The note with it: read from FIG. 2.

On to `O=C(O)c1ccc(-c2ccc(C(=O)O)cc2)cc1` [4,4′-BPDA, 4,4′-biphenyldicarboxylic acid], for which the “water solubility (BPDA loading in the aqueous phase)” value is “ca. 10 wt %” (320° C.) and “ca. 20 wt %” (340° C.).
